System: Mugil cephalus
Assay: Ovum maturation (vitellogenesis) of Mugil cephalus after implantation of sustained-release capsules
Assay type: in vivo
Conditions: M. cephalus, implanted in May, diameter in October; preparation 400 μg, estradiol 1000 μg; FIG. 3
From the text: Additionally, a method for inducing vitellogenesis in fish can also be developed, by implanting the preparation of the present invention into body cavity or body wall of bony fish, for example in lateral muscle or abdomen cavity, in order to inducing the sexual maturation and vitellogenesis in the bony fish. With reference to FIG. 1, the preparation of the present invention is preferably implanted into lateral muscle adjacent to dorsal fin 21 of a bony fish 2 by an injector 1 in the present embodiment. Accordingly, the decapeptide in the preparation can be sustaining released into the bony fish for long-term inducing the hypophysis to synthesize and secrete gonadotropin (GtH) so that the vitellogenesis and breeding of the bony fish can be achieved.
Referring to FIG. 3, the responses of Mugil cephalus on decapeptide-induction are shown. In the present embodiment, several farming M. cephalus, are prepared and randomly assigned into five groups including (b1), (b2) ovaprin group, (b3) estradiol group, (b4) MixT group and (b5) control group. […] Moreover, ova of each group of M. cephalus are collected and analyzed monthly after implantation for monitoring the vitellogenesis in each group of M. cephalus. The ovum maturation of each group of M. cephalus is also determined in accordance with the size and accumulation of the ovum.

C[C@]12CC[C@@H]3c4ccc(O)cc4CC[C@H]3[C@@H]1CC[C@@H]2O [estradiol]
oocyte diameter: about 380 μm
